Laboratory results as given in US20250281480A1, “PHARMACEUTICAL DRY POWDER INHALATION FORMULATION” (Bayer Aktiengesellschaft, priority 2021, published 2025).

Tests used:
plasma proteins [1] = experiment: Protein binding via Transil assay, rat plasma; assay type: in vitro ADME
Description: (§1) The distribution of a test substance between Transil® (phosphatidylcholine lipid bilayers immobilized on silica beads) and plasma is a characteristic feature of any pharmaceutical compound and is dependent on its extent of binding to plasma proteins. By comparing the distribution between Transil® and buffer with the distribution between Transil® and plasma of any species of interest, the unbound fraction in the plasma of the respective animal species can be calculated in vitro. The respective plasma and buffer concentrations were determined via a radioactivity analysis. A detailed description of the method and its validation was published by Schuhmacher et al. (2).

plasma proteins [2] = experiment: Protein binding via Transil assay, human plasma; assay type: in vitro ADME; settings: human plasma
Description: as §1

[3] = system: conscious hypoxia challenged dog; experiment: Conscious hypoxia challenged dog model, duration of action (PAP reduction); assay type: in vivo
plasma proteins [4] = experiment: Protein binding via Transil assay, monkey plasma; assay type: in vitro ADME
Description: as §1

[5] = system: anesthetized PAH minipigs; experiment: PAH minipig, intratracheal application of dry powder formulations and of different hydrates (PAP, BP); assay type: in vivo, Göttingen Minipigs; settings: dry powder lactose formulation, i.t.
Description: (§2) Healthy Göttingen Minipigs® Ellegaard (Ellegaard, Denmark) of both sexes and having a weight of 2-6 kg were used. The animals were sedated by i.m. administration of about 25 mg/kg ketamine and about 10 mg/kg azaperone. Anaesthesia was initiated by i.v. administration of about 2 mg/kg ketamine and about 0.3 mg/kg midazolam. Maintenance of anaesthesia was by i.v. administration of about 7.5-30 mg/kg/h ketamine and about 1-4 mg/kg/h midazolam (rate of infusion 1-4 ml/kg/h) and about 150 μg/kg/h pancuronium bromide (for example Pancuronium-Actavis). After intubation, the animals were ventilated by the ventilator at a constant respiratory volume (10-12 ml/kg, 35 breaths/min; Avea®, Viasys Healthcare, USA, or Engström Carestation, GE Healthcare, Freiburg, Germany) such that an end-tidal CO2 concentration of about 5% was achieved. Ventilation was performed with room air, enriched with about 40% oxygen (normoxia). For the measurement of the haemodynamic parameters such as pulmonary arterial pressure (PAP), blood pressure (BP) and heart rate (HR), catheters were inserted into the carotid artery to measure the blood pressure, and a Swan-Ganz® catheter was introduced in a flow-directed manner via the jugular vein into the pulmonary artery. The haemodynamic signals were recorded and evaluated by means of pressure transducers (Combitransducer, B. Braun, Melsungen, Germany)/amplifiers and Ponemah® as data acquisition software.
About 0.3-0.75 μg/kg/min of 9,11-didesoxy-9α,11α-epoxymethanoprostaglandine F2α (U-44069; Sigma, cat. no. D0400, or Cayman Chemical Company, cat. no. 16440), dissolved in physiological saline, were infused to achieve an increase of the mean pulmonary arterial pressure to values of over 25 mmHg.
After characterization of the effects of comparative example 11 after nebulization of compound solutions, in a further step the effects of crystalline forms of comparative example 11, e.g. sesquihydrate, e.g. example 6e on PAP and BP after inhaled application of different dry powder lactose formulations (table 52) were studied in anesthetized PAH minipigs.
As reference pure Lactose vehicle was applied in the beginning of each experiment.

[6] = system: anesthetized thromboxane A2 challenged PAH-minipig; experiment: Haemodynamics in the anesthetized thromboxane challenged minipig (PAH minipig), inhaled nebulized solution: lung selectivity and duration of action; assay type: in vivo, Göttingen Minipigs
Description: as §2
After the instruments have been placed into the animals, continuous infusion of a thromboxane A2 analog was initiated to increase the pulmonary arterial pressure. About 0.3-0.75 μg/kg/min of 9,11-didesoxy-9α,11α-epoxymethanoprostaglandine F2α (U-44069; Sigma, cat. no. D0400, or Cayman Chemical Company, cat. no. 16440), dissolved in physiological saline, were infused to achieve an increase of the mean pulmonary arterial pressure to values of over 25 mmHg. 30 minutes after the start of the infusion, a plateau was reached, and the experiment was started.
The test substances were administered as i.v. infusion or by inhalation. For the preparation of the solution for inhalation, the following procedure was adopted: For an animal having a weight of 4 kg, to prepare the stock solution (300 μg/kg), 1.2 mg of the test compound were weighed out and dissolved in a total volume of 3 ml (1% DMSO, 99% 0.2% strength citric acid solution, 1 n aqueous sodium hydroxide solution to adjust the pH to 8). The solution was then diluted to the concentration employed using 0.2% strength citric acid which had been adjusted to pH 8 beforehand with aqueous sodium hydroxide solution. In each test, 3 ml of the solution of test compound per 4 kg animal were nebulized in the inhalation arm of the respiratory circuit using the Aeroneb® Pro nebulizer system. The mean nebulization time was about 7 min from the start of the nebulization.
With respect to a prediction of the duration of action for human studies comparative example 11 was compared in the PAH minipig model after inhaled application to Ventavis® (=Iloprost, 10 μg/kg nominal dose), which we used as a clinical reference. […] Therefore, the duration of action is more than 6 times longer compared to Ventavis in this preclinical animal model.

soluble guanylyl cyclase = experiment: Efficacy under experimental conditions of oxidative stress (ODQ, L-NAME treatment); assay type: in vivo
[7] = system: chronic ovalbumin asthma mice model; experiment: Chronic ovalbumin asthma mice model; settings: mouse, in vivo
[8] = Storage stability of pseudopolymorphic forms (XRPD); assay type: physicochemical; settings: same storage conditions as table 15

Row | SMILES | fraction unbound, lower than comparative example 1 (plasma proteins [1]) [times lower] | free fraction, lower than comparative example 1 (plasma proteins [2]) [times lower] | duration of effect (PAP reduction) [3] | free fraction, lower than comparative example 1 (plasma proteins [4]) [times lower] | MED [5] [µg/kg] | minimal effective nominal dose ([6]; 5% reduction in PAP, nebulized) [µg/kg] | dose dependent efficacy (PAP) during observation interval ([6]; all doses (10, 30 and 100 μg/kg nominal dose), inhaled) [min] | selective PAP effect, duration of maximal effect ([6]; inhaled application, whole observation interval) [min] | duration of action ([6]; minipig model, inhaled) | time of maximal effect on PAP after inhaled application ([6]; nebulized solution) | efficacy under oxidative stress (soluble guanylyl cyclase) | effect on airway hyper-responsiveness and inflammation [7] | storage stability [8]
1 | O=C(O)c1ccc(CCN(CCc2ccccc2OCc2ccc(-c3ccc(C(F)(F)F)cc3)cc2Cl)[C@H]2CCCc3nc(C(=O)O)ccc32)cc1 [Comparative example 11, (5S)-5-{[2-(4-carboxyphenyl)ethyl][2-(2-{[3-chloro-4′-(trifluoromethyl)[biphenyl]-4-yl]methoxy}phenyl)ethyl]amino}-5,6,7,8-tetrahydroquinoline-2-carboxylic Acid] | 1.6 | 2 | up to 17 hrs | 2 | < 7.5 | 3 | 240 | 240 | sufficient duration of action | about 90 min | enhanced | inhibitory effect on airway hyper-responsiveness and inflammation | –
2 | O=C(O)c1ccc(CCN(CCc2ccccc2OCc2ccc(-c3ccc(C(F)(F)F)cc3)cc2Cl)[C@H]2CCCc3nc(C(=O)O)ccc32)cc1 [Example 4, (5S)—{[2-(4-Carboxyphenyl)ethyl][2-(2-{[3-chloro-4′-(trifluoromethyl)biphenyl-4-yl]methoxy}phenyl)-ethyl]amino}-5,6,7,8-tetrahydroquinoline-2-carboxylic Acid as Monohydrate I] | – | – | – | – | – | – | – | – | – | – | – | – | stable
